Experimental data from the supplement of paper PMC11061612.

What was measured:
[1] = compound: C=CCn1c(=O)c2cnc(Nc3ccc(N4CCN(C)CC4)cc3)nc2n1-c1cccc(C(C)(C)O)n1 [AZD1775]; details: max 3 µM
How it was run: (§1)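 After 24 hours at 37°C and 5% CO2 in 1536-well plates holding 7.5 μl of DMEM/F12 or RPMI with 10% FBS, cancer cell lines were dosed for 72 hours, with final DMSO typically 0.2%. Viability came from CellTiter-Glo 2.0 luminescence, scaled between the means of blank wells and DMSO wells. A non-linear mixed effects model fitted a two-parameter logistic curve to each dose response to give the single-agent IC50.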

[2] = compound: CS(=O)(=O)CCNCc1ccc(-c2ccc3ncnc(Nc4ccc(OCc5cccc(F)c5)c(Cl)c4)c3c2)o1 [Lapatinib]; details: max 10 µM
How it was run: as §1

[3] = compound: C1CN(CCC1(C(=O)N[C@@H](CCO)C2=CC=C(C=C2)Cl)N)C3=NC=NC4=C3C=CN4 [Capivasertib]; details: max 10 µM
How it was run: as §1

[4] = compound: COc1cc(Nc2ncc3c(n2)-c2ccc(Cl)cc2C(c2c(F)cccc2OC)=NC3)ccc1C(=O)O [Alisertib]; details: max 10 µM
How it was run: as §1

[5] = compound: C[C@@H]1COCCN1C2=NC(=NC(=C2)C3(CC3)[S@](=N)(=O)C)C4=C5C=CNC5=NC=C4 [AZD6738]; details: max 10 µM
How it was run: as §1

[6] = compound: NC1(c2ccc(-c3nc4ccn5c(=O)[nH]nc5c4cc3-c3ccccc3)cc2)CCC1 [MK-2206]; details: max 10 µM
How it was run: as §1

[7] = compound: CC(=O)c1c(C)c2cnc(Nc3ccc(N4CCNCC4)cn3)nc2n(C2CCCC2)c1=O [Palbociclib]; details: max 10 µM
How it was run: as §1

[8] = compound: CCc1c2c(nc3ccc(O)cc13)-c1cc3c(c(=O)n1C2)COC(=O)[C@]3(O)CC [SN-38]; details: max 0.3 µM
How it was run: as §1

[9] = compound: CCN(CCO)CCCOc1ccc2c(Nc3cc(CC(=O)Nc4cccc(F)c4)[nH]n3)ncnc2c1 [AZD2811]; details: max 1 µM
How it was run: as §1

[10] = compound: CC1=C(C(=CC=C1)Cl)NC(=O)C2=CN=C(S2)NC3=CC(=NC(=N3)C)N4CCN(CC4)CCO [Dasatinib]; details: max 2 µM
How it was run: as §1

[11] = compound: COc1nnc2ccc(N3CCC(c4ccc(OCCN5CCN(C)C(=O)[C@H]5C)cc4)CC3)nn12 [AZD5153]; details: max 1 µM
How it was run: as §1

[12] = compound: C[C@@H](Oc1cc(-c2cnn(C3CCNCC3)c2)cnc1N)c1c(Cl)ccc(F)c1Cl [Crizotinib]; details: max 10 µM
How it was run: as §1

[13] = compound: CN(C)CCCOc1ccc(-c2ccc3ncc4c(c3c2)n(C2CCOCC2)c(=O)n4C)cn1 [AZD0156]; details: max 3 µM
How it was run: as §1

[14] = compound: CC1=CN2[C@@H](C1)C=NC3=CC(=C(C=C3C2=O)OC)OCCCCCOC4=C(C=C5C(=C4)N=C[C@@H]6CC(=CN6C5=O)C)OC [SG3199]; details: max 0.001 µM
How it was run: as §1

[15] = compound: COc1cc2ncnc(Nc3ccc(F)c(Cl)c3)c2cc1OCCCN1CCOCC1 [Gefitinib]; details: max 10 µM
How it was run: as §1

[16] = compound: Cc1nc(-c2cn3c(n2)-c2ccc(-c4cnn(C(C)(C)C(N)=O)c4)cc2OCC3)n(C(C)C)n1 [Taselisib]; details: max 10 µM
How it was run: as §1

[17] = compound: Cn1cnc2c(F)c(Nc3ccc(Br)cc3Cl)c(C(=O)NOCCO)cc21 [Selumetinib]; details: max 10 µM
How it was run: as §1

[18] = compound: C[C@@H](Nc1cc(F)cc(F)c1)c1cc(C(=O)N(C)C)cc2c(=O)cc(N3CCOCC3)oc12 [AZD8186]; details: max 3 µM
How it was run: as §1

[19] = compound: COc1cccc(OCCCN)c1-c1cc(Nc2cnc(C#N)cn2)n[nH]1 [Prexasertib]; details: max 1 µM
How it was run: as §1

[20] = compound: C[C@@H](c1ccc2nccn2c1)n1nnc2ncc(-c3cnn(C)c3)nc21 [Savolitinib]; details: max 1 µM
How it was run: as §1

[21] = compound: CC(C)n1c(=O)n(C)c2cnc3cc(F)c(-c4ccc(OCCCN5CCCCC5)nc4)cc3c21 [AZD1390]; details: max 0.3 µM
How it was run: as §1

[22] = compound: Cc1cc2ncnn2cc1Nc1ncc2c(n1)n(C1CCOCC1)c(=O)n2C [AZD7648]; details: max 10 µM
How it was run: as §1

[23] = compound: Cc1c2c(nn1C)CSCc1cc(n(C)n1)CSc1cc(c3ccccc3c1)OCCCc1c(C(=O)O)n(C)c3c-2c(Cl)ccc13 [AZD5991]; details: max 1 µM
How it was run: as §1

[24] = compound: O=C(c1cc(Cc2n[nH]c(=O)c3ccccc23)ccc1F)N1CCN(C(=O)C2CC2)CC1 [Olaparib]; details: max 10 µM
How it was run: as §1

[25] = compound: CC1(C)CCC(CN2CCN(c3ccc(C(=O)NS(=O)(=O)c4ccc(NCC5CCOCC5)c([N+](=O)[O-])c4)c(Oc4cnc5[nH]ccc5c4)c3)CC2)=C(c2ccc(Cl)cc2)C1 [Venetoclax]; details: max 1 µM
How it was run: as §1

[26] = compound: COc1cccc2c1C(=O)c1c(O)c3c(c(O)c1C2=O)C[C@@](O)(C(=O)CO)C[C@@H]3O[C@H]1C[C@H](N)[C@H](O)[C@H](C)O1 [Doxorubicin]; details: max 1 µM
How it was run: as §1

[27] = compound: CC(=O)Nc1cccc(-n2c(=O)n(C3CC3)c(=O)c3c(Nc4ccc(I)cc4F)n(C)c(=O)c(C)c32)c1 [Trametinib]; details: max 1 µM
How it was run: as §1

[28] = compound: CN(CC[C@H](CSC1=CC=CC=C1)NC2=C(C=C(C=C2)S(=O)(=O)NC(=O)C3=CC=C(C=C3)N4CCC(CC4)[C@H](C5=CC=CC=C5C6=CC=C(C=C6)Cl)O)S(=O)(=O)C(F)(F)F)CCO [AZD4320]; details: max 1 µM
How it was run: as §1

Cell Line	IC50, cell viability 72 h [1] [nM]	IC50, cell viability 72 h [2] [nM]	IC50, cell viability 72 h [3] [nM]	IC50, cell viability 72 h [4] [nM]	IC50, cell viability 72 h [5] [nM]	IC50, cell viability 72 h [6] [nM]	IC50, cell viability 72 h [7] [nM]	IC50, cell viability 72 h [8] [nM]	IC50, cell viability 72 h [9] [nM]	IC50, cell viability 72 h [10] [nM]	IC50, cell viability 72 h [11] [nM]	IC50, cell viability 72 h [12] [nM]	IC50, cell viability 72 h [13] [nM]	IC50, cell viability 72 h [14] [nM]	IC50, cell viability 72 h [15] [nM]	IC50, cell viability 72 h [16] [nM]	IC50, cell viability 72 h [17] [nM]	IC50, cell viability 72 h [18] [nM]	IC50, cell viability 72 h [19] [nM]	IC50, cell viability 72 h [20] [nM]	IC50, cell viability 72 h [21] [nM]	IC50, cell viability 72 h [22] [nM]	IC50, cell viability 72 h [23] [nM]	IC50, cell viability 72 h [24] [nM]	IC50, cell viability 72 h [25] [nM]	IC50, cell viability 72 h [26] [nM]	IC50, cell viability 72 h [27] [nM]	IC50, cell viability 72 h [28] [nM]
HCC1500 (Breast Carcinoma)	2900	> 10000	> 10000	> 10000	> 10000	> 10000	> 10000	213	> 1000	> 2000	> 1000	> 10000	> 3000	> 1	> 10000	> 10000	> 10000	> 3000	> 1000	> 1000	> 300	> 10000	> 1000	> 10000	291	> 1000	> 1000	45.2
HCC1937 (Breast Carcinoma)	643	> 10000	> 10000	> 10000	> 10000	> 10000	> 10000	> 300	> 1000	> 2000	> 1000	> 10000	> 3000	> 1	> 10000	9150	> 10000	> 3000	318	> 1000	> 300	> 10000	> 1000	> 10000	> 1000	> 1000	> 1000	> 1000
KOPN-8 (B-Lymphoblastic Leukemia)	314	> 10000	4980	23.4	725	8590	2620	2.7	37.7	> 2000	28.5	2770	> 3000	> 1	> 10000	> 10000	6210	> 3000	19.8	> 1000	> 300	> 10000	43.4	6850	50	106	36.9	11
LC-1-sq (Squamous Cell Lung Carcinoma)	294	> 10000	> 10000	> 10000	2130	–	> 10000	> 300	> 1000	> 2000	490	> 10000	> 3000	> 1	> 10000	> 10000	> 10000	> 3000	16.4	> 1000	> 300	> 10000	> 1000	> 10000	> 1000	> 1000	> 1000	> 1000
NCI-H650 (Lung Adenocarcinoma)	2650	> 10000	> 10000	> 10000	> 10000	> 10000	> 10000	100	> 1000	> 2000	> 1000	> 10000	> 3000	> 1	> 10000	> 10000	> 10000	> 3000	283	> 1000	> 300	> 10000	> 1000	> 10000	> 1000	> 1000	> 1000	> 1000
NCI-H1092 (Small Cell Lung Carcinoma)	2940	> 10000	> 10000	> 10000	> 10000	> 10000	> 10000	> 300	> 1000	> 2000	> 1000	> 10000	> 3000	> 1	> 10000	> 10000	> 10000	> 3000	144	> 1000	> 300	> 10000	819	> 10000	> 1000	> 1000	> 1000	152
NCI-H1838 (Lung Adenocarcinoma)	2440	> 10000	> 10000	> 10000	> 10000	> 10000	> 10000	> 300	> 1000	> 2000	> 1000	> 10000	> 3000	> 1	> 10000	5860	> 10000	> 3000	212	> 1000	> 300	> 10000	> 1000	> 10000	> 1000	> 1000	> 1000	> 1000
NCI-H2122 (Lung Adenocarcinoma)	547	6230	4950	65	1140	–	1910	40.5	347	> 2000	115	1920	> 3000	> 1	5670	373	496	> 3000	29.1	> 1000	> 300	> 10000	> 1000	> 10000	> 1000	> 1000	13.8	> 1000
OACM5-1 (Esophageal Adenocarcinoma)	2550	8070	1990	3850	9880	–	6860	46.4	> 1000	> 2000	391	4400	> 3000	> 1	> 10000	418	> 10000	> 3000	134	> 1000	> 300	> 10000	58.2	> 10000	> 1000	615	> 1000	> 1000
